In US6472198B1, “Slow release substrates for driving microbial transformations of environmental contaminants” (The State of Oregon Acting by and through the State Board …, priority 1998, dated 2002):
Entries after “also recorded” stand apart in the source; their conditions may differ.

Key:
[1] = tested on: Pt. Mugu groundwater and aquifer solids microcosm; assay: Anaerobic reductive dechlorination of TCE in Pt. Mugu microcosm amended with TBOS; assay type: cell-based; conditions: for incubation time after which dechlorination of the substance was observed: TCE 5 mg/L, Pt. Mugu microcosm
[2] = Solubility in water (statement); assay type: physicochemical
[3] = Hydrolysis period of slow release compounds in bioremediation studies; assay type: physicochemical; conditions: TBOS to 1-butanol, TPOS to phenol
Text: These alcohols can then be used by the microorganisms to cometabolize halogenated organics, such as TCE, for example. As discussed in the Examples below, the decrease in TBOS in a poisoned (killed) control compared similarly to the nonpoisoned (live) microbially active system under anaerobic conditions. Microbial activity was indicated by the production of acetate, butanol, butyrate, and hydrogen in the live microcosms, and the lack of production in the poisoned control. […] Thus, TBOS is not directly degraded, but is first hydrolyzed by reactions with water to form 1-butanol, which can then be used to drive the aerobic cometabolism of chlorinated organics.

[4] = Abiotic hydrolysis of TBOS and TKEBS in sterilized pH buffered solutions; assay type: physicochemical; conditions: for effect of temperature on hydrolysis: pH 7, 10 mg/L, 15 °C vs 30 °C; for factor of increase in rate of hydrolysis on ten-fold increase in concentration: pH 7, 30 °C, 10 mg/L to 100 mg/L
[5] = tested on: indigenous microorganisms in groundwater (Lawrence Livermore Site 300); assay: Anaerobic reductive dechlorination of TCE in Site 300 groundwater microcosms containing TKEBS; assay type: cell-based
Method: In initial studies, groundwater from Lawrence Livermore Laboratory(Site 300, D3 Well) was used to make up six different microcosms. Two of these microcosms were sterilized to form controls, one by the addition of mercuric chloride and the other by autoclaving. Two microcosms were amended with sodium benzoate (200 mg/L) as an additional carbon source and the last two were left untouched.
Later experiments were carried out to re-evaluate the anaerobic TCE transformation rates driven by TKEBS transformation. The culture used for these biodegradation studies were indigenous microorganisms stimulated from the groundwater (as described in Example 1) collected from the same site initially studied. The anaerobic biodegradation studies were carried out using 1L media bottles. The microcosms were prepared in an anaerobic glove box and then purged using treated (to remove oxygen) nitrogen to remove the hydrogen and carbon dioxide introduced into the microcosms from the glove box.
The groundwater was purged with treated nitrogen to remove all traces of TCE and cis-DCE prior to re-injection of TCE. Pure TCE was added to obtain concentrations of 100 mg/L(aqueous). […] The microcosms were analyzed for chlorinated ethenes, hydrogen, carbon dioxide, alcohols, and their fermentation products.

[6] = tested on: microbially active Site 300 groundwater microcosm; assay: Reductive dechlorination of TCE in Site 300 groundwater microcosm with TBOS and TKEBS added; assay type: cell-based; conditions: TCE additions at 0, 135, 160 days
Method: The TCE dechlorination experiments were conducted in the same way as described in Example 3. In these experiments, however, TBOS and TKEBS were amended to samples of the groundwater microcosms.
Shown in FIGS. 11a-11c is a microbial active version of a Site 300 microcosm with TBOS and TKEBS added. However in this case both ethybutanol and butanol are utilized, compared to the poisoned control where they accumulated. Acetate, butyrate and hydrogen are produced as a result of fermentation reactions. […] Three additions of TCE are transformed at 0, 135, and 160 days, with the corresponding increases in c-DCE occurring. Hydrogen is shown to be utilized upon TCE addition and produced once TCE transformation has stopped.

[7] = tested on: microbial culture grown on TBOS; assay: Aerobic cometabolism of TCE by microorganisms grown on TBOS; assay type: cell-based
Method: (§1) Gas phase TCE and cis-DCE concentrations were measured by injecting 10-100 μL of a gaseous sample into a HP-5890 gas chromatograph connected to a photoionization detector (PID) followed by a flame ionization detector (FID). Chromatographic separation was carried-out with a 30-m megabore GSQ-PLOT column from J&W Scientific (Folsom, Calif.). The GC operating conditions were as follows: injector temperature, 250° C.; detector temperature: 280° C.; the column was initially maintained at 40° C. for 2 minutes and then heated to 220° C. at 15° C./minute.
The microcosms for aerobic cometabolism studies were carried out as described in Example 1 under the heading “Aerobic Biodegradation.” The bacterial culture used was that described in Example 1 under the heading “Enrichment of Aerobic Culture.” cis-DCE and TCE stocks in water were prepared by saturating distilled water with cis-DCE and TCE at 30° C. TCE and cis-DCE dissolved in the water to their solubility limit. The aqueous phase from these stocks was then added to the microcosms to yield the required concentrations (0.8 mg/L for TCE and 2 mg/L for cis-DCE). TBOS was introduced into the microcosms by injecting pure TBOS liquid using a microliter syringe.
Microbial culture from the wastewater treatment plant of Corvallis, Oregon grown on TBOS was tested for its ability to cometabolize TCE and cis-DCE. Microcosms were constructed with 4.0 mg (dry weight) of culture enriched from a continuous-feed batch reactor according to the procedure described in Example 1. Three microcosms and a control were evaluated: a poisoned control (i.e., a killed microcosm) with TBOS and TCE; a biologically active microcosm with TBOS and TCE; and a resting cell microcosm with only TCE; and an acetylene block microcosm with TBOS and TCE (having acetylene in the head space). The acetylene block experiment was used to investigate the presence of a monooxygenase enzyme.

[8] = tested on: microbial culture grown on TBOS; conditions: cited from earlier work
[9] = tested on: microbial culture grown on TBOS; assay: Aerobic cometabolism of cis-DCE by microorganisms grown on TBOS; assay type: cell-based; conditions: biologically active microcosm
Method: as §1
The microcosms for aerobic cometabolism studies were carried out as described in Example 1 under the heading “Aerobic Biodegradation.” The bacterial culture used was that described in Example 1 under the heading “Enrichment of Aerobic Culture.” cis-DCE and TCE stocks in water were prepared by saturating distilled water with cis-DCE and TCE at 30° C. TCE and cis-DCE dissolved in the water to their solubility limit. […]
The microbial culture grown on TBOS was tested for its ability to cometabolize cis-DCE. […] Four microcosms and two controls were evaluated: a poisoned control with TBOS and cis-DCE; an autoclaved control with TBOS and cis-DCE; two biologically active microcosms with TBOS and cis-DCE; a resting cell microcosm with only cis-DCE; and an acetylene block microcosm with TBOS and cis-DCE.

[10] = Hydrolysis rate category of organosilanes and organosiloxanes, approximately based on half lives; assay type: physicochemical; parameters: key: Slow - 1 month; Very Slow - Several months; Very Fast - days; Fast - weeks
[11] = pH 7.8 (site groundwater), 30 °C, 10 mg/L
[12] = organosilanes, Table 1, rates approximately based on half lives
[13] = organosiloxanes, Table 2, key given under Table 1

## CCCCO[Si](OCCCC)(OCCCC)OCCCC [No. 2, Tetrabutoxysilane]
[1]; TBOS 1 g/L added at start of test
  duration of TCE transformation resulting from addition of only TBOS: over 500 days
[1]; anaerobic Pt. Mugu microcosm, TBOS 1 g/L
  persistence of TBOS in the microcosm: over 450 days
[2]
  solubility: very low
[3]
  period over which hydrolysis to the alcohol occurs: two month
[4]; 30 °C, 10 mg/L
  1-butanol formed per TBOS hydrolyzed: 4 moles of 1-butanol per mole of TBOS
  rate of transformation at pH 5 and pH 9 compared to pH 7: increased by a factor of two
[4]; pH 5.0, 30 °C, 10 mg/L
  Rates of Hydrolysis Based on 1-butanol production: 0.19 µmol/day
  Rates of Hydrolysis Based on TBOS degradation: -0.160 µmol/day
[4]
  effect of temperature on hydrolysis: Very little increase
  factor of increase in rate of hydrolysis on ten-fold increase in concentration: 4
[4]; pH 7.0, 15 °C, 10 mg/L
  Rates of Hydrolysis Based on 1-butanol production: 0.08 µmol/day
  Rates of Hydrolysis Based on TBOS degradation: -0.060 µmol/day
[4]; pH 7.0, 30 °C, 10 mg/L
  Rates of Hydrolysis Based on 1-butanol production: 0.08 µmol/day
  Rates of Hydrolysis Based on TBOS degradation: -0.062 µmol/day
[4]; pH 7.0, 30 °C, 100 mg/L
  Rates of Hydrolysis Based on 1-butanol production: 0.26 µmol/day
  Rates of Hydrolysis Based on TBOS degradation: -0.208 µmol/day
[4]; [11]
  Rates of Hydrolysis Based on 1-butanol production: 0.16 µmol/day
  Rates of Hydrolysis Based on TBOS degradation: -0.110 µmol/day
[4]; pH 9.0, 30 °C, 10 mg/L
  Rates of Hydrolysis Based on 1-butanol production: 0.22 µmol/day
  Rates of Hydrolysis Based on TBOS degradation: -0.151 µmol/day

## CCC(CC)CO[Si](OCC(CC)CC)(OCC(CC)CC)OCC(CC)CC [No. 3, Tetrakis(2-ethylbutoxy) silane]
[4]; listed as TKEBS
  rate of hydrolysis compared with TBOS: much slower rate; also recorded: about an order of magnitude lower
[4]; pH 5.0, 30 °C, 10 mg/L
  Rates of Hydrolysis Based on 2-ethyl-butanol production: 0.023 µmol/day
[4]
  effect of temperature on hydrolysis: Very little increase
  factor of increase in rate of hydrolysis on ten-fold increase in concentration: 10
[4]; pH 7.0, 15 °C, 10 mg/L
  Rates of Hydrolysis Based on 2-ethyl-butanol production: 0.011 µmol/day
[4]; pH 7.0, 30 °C, 10 mg/L
  Rates of Hydrolysis Based on 2-ethyl-butanol production: 0.012 µmol/day
[4]; pH 7.0, 30 °C, 100 mg/L
  Rates of Hydrolysis Based on 2-ethyl-butanol production: 0.105 µmol/day
[4]; [11]
  Rates of Hydrolysis Based on 2-ethyl-butanol production: 0.011 µmol/day
[4]; pH 9.0, 30 °C, 10 mg/L
  Rates of Hydrolysis Based on 2-ethyl-butanol production: 0.022 µmol/day

## c1ccc(O[Si](Oc2ccccc2)(Oc2ccccc2)Oc2ccccc2)cc1 [No. 4, Tetraphenoxysilane]
[3]
  period over which hydrolysis to the alcohol occurs: weeks

## ClC=C(Cl)Cl [TCE, Trichloroethylene]
[5]; 125 mL serum bottles, groundwater microcosms
  anaerobic TCE transformation in initial experiments (in words): complete transformation of TCE to cis-DCE
[5]; TCE 100 mg/L, September '97 groundwater containing TKEBS and 2-ethylbutanol, 30 °C
  time for dechlorination of TCE to cis-DCE: 14 days
[1]; TBOS 1 g/L
  incubation time after which dechlorination of the substance was observed: 40 days
[6]
  TCE transformation (in words): rapidly transformed to c-DCE
[7]; TBOS and TCE, acetylene in head space, in 140 hours
  TCE transformation in acetylene-blocked microcosm: about 20%
[7]; TCE 0.89 mg/L (1.6 μmol), microcosm with TBOS 20 mg/L added
  time to complete cometabolism of TCE: ≤ 65 h
[7]; resting cells, no TBOS added
  TCE cometabolism by resting cells, less than that achieved with TBOS addition: 15-20%

## C=CCl [VC, vinyl chloride]
[1]; TBOS 1 g/L
  incubation time after which dechlorination of the substance was observed: about 125 days

## Cl[C@@H]1O[C@@H]1Cl [cis-DCE epoxide]
[8]
  half-life of abiotic transformation of cis-DCE epoxide: 70 h
[9]
  half-life of cis-DCE epoxide transformation: about 35 hours

## Cl/C=C\Cl [cis-DCE, cis-dichloroethylene]
[1]; TBOS 1 g/L
  incubation time after which dechlorination of the substance was observed: about 90 days

## CCCO[Si](OCCC)(OCCC)OCCC [compound 1, Tetrapropoxysilane]
[10]; [12]
  Hydrolysis rate: Slow (Slow - 1 month)

## CCCCO[Si](OCCCC)(OCCCC)OCCCC [compound 2, Tetrabutoxysilane]
[10]; [12]
  Hydrolysis rate: Slow (Slow - 1 month)

## CCC(CC)CO[Si](OCC(CC)CC)(OCC(CC)CC)OCC(CC)CC [compound 3, Tetrakis(2-ethylbutoxy) silane]
[10]; [12]
  Hydrolysis rate: Very Slow

## CC(=O)O[Si](OC(C)=O)(OC(C)=O)OC(C)=O [compound 5, Silicon tetraacetate]
[10]; [12]
  Hydrolysis rate: Very Fast

## CCC(=O)O[Si](OC(=O)CC)(OC(=O)CC)OC(=O)CC [compound 6, Silicon tetrapropionate]
[10]; [12]
  Hydrolysis rate: Fast

## CCCC(=O)O[Si](OC(=O)CCC)(OC(=O)CCC)OC(=O)CCC [compound 7, Silicon tetrabutyrate]
[10]; [12]
  Hydrolysis rate: Fast

## C=CCO[Si](OCC=C)(OCC=C)OCC=C [compound 11, Tetraallyloxy silane]
[10]; [12]
  Hydrolysis rate: Slow (Slow - 1 month)

## CCC(C)CO[Si](OCC(C)CC)(OCC(C)CC)OCC(C)CC (stereo not drawn) [compound 13, Tetrakis(2-methylbutoxy) silane]
[10]; [12]
  Hydrolysis rate: Very Slow

## CCC(C)O[Si](OC(C)CC)(OC(C)CC)OC(C)CC (stereo not drawn) [compound 14, Tetrakis(1-methylpropoxy) silane]
[10]; [12]
  Hydrolysis rate: Slow (Slow - 1 month)

## CC(C)CO[Si](OCC(C)C)(OCC(C)C)OCC(C)C [compound 15, Tetrakis(2-methylpropoxy) silane]
[10]; [12]
  Hydrolysis rate: Slow (Slow - 1 month)

## CC(C)O[Si](OC(C)C)(OC(C)C)OC(C)C [compound 18, Tetrakis(1-methylethoxy) silane]
[10]; [12]
  Hydrolysis rate: Slow (Slow - 1 month)

## CCO[Si](OCC)(OCC)O[Si](OCC)(OCC)OCC [compound 19]
[10]; [13]
  Hydrolysis rate: Slow (Slow - 1 month)

## CCCO[Si](OCCC)(OCCC)O[Si](OCCC)(OCCC)OCCC [compound 20]
[10]; [13]
  Hydrolysis rate: Slow (Slow - 1 month)

## CCCCO[Si](OCCCC)(OCCCC)O[Si](OCCCC)(OCCCC)OCCCC [compound 21]
[10]; [13]
  Hydrolysis rate: Slow (Slow - 1 month)

## c1ccc(O[Si](Oc2ccccc2)(Oc2ccccc2)O[Si](Oc2ccccc2)(Oc2ccccc2)Oc2ccccc2)cc1 [compound 22]
[10]; [13]
  Hydrolysis rate: Slow (Slow - 1 month)

## CCO[Si](OCC)(OCC)O[Si](OCC)(OCC)O[Si](OCC)(OCC)OCC [compound 23]
[10]; [13]
  Hydrolysis rate: Slow (Slow - 1 month)

## Tetrakis(1-hydroxypropoxy) silane [compound 17]
[10]; [12]
  Hydrolysis rate: Fast

## Tetrakis(benzylmethoxy) silane [compound 16]
[10]; [12]
  Hydrolysis rate: Fast

## Tetraphenoxysilane [compound 4]
[10]; [12]
  Hydrolysis rate: Very Fast
